We go through six molecules from patent US12472269B2, “Liver-specific inducible promoters and methods of use thereof” (ASKBIO INC., priority 2019, dated 2025).

The test system of one data set is primary hepatocytes. As to the kind of experiment: Induction of PBREM variants by CITCO and flavone in primary hepatocytes. Format: cell-based, human. The text has this:
(§1) In the earlier examples, variants of the promoters used contained a mouse PBREM element. To confirm our expectation that the human PBREM element could also be used, we also assessed the inducibility of the human PBREM; this is potentially relevant because one aim of this project is to provide inducible promoters for use in human gene therapy, and the human sequence may have some advantages. In addition, we also assessed human and mouse hybrids of the PBREM element to determine if we could modulate or improve the inducibility and background level of the promoters. Such new combinations would not be found in nature in any context, and would likely to have novel traits, e.g. background and induction level. The constructs were tested in the PGL4.10 backbone as previously described, and are listed below in Table 2. These were: Human NR1×3-Min TK (3× human NR1 region with MinTK minimal promoter); Human PBREM-minTK (human PBREM with MinTK minimal promoter); hNR1-mNF1-hNR2-Min TK (Human Mouse Human hybrid with MinTK minimal promoter); hNR1-mNFI mNR2-Min TK (Human Mouse Mouse hybrid with MinTK minimal promoter); mNR1-hNF1-mNR2-Min TK (Mouse Human Mouse hybrid with MinTK minimal promoter); mNR1-hNF1-hNR2-Min TK (Mouse Human Human hybrid with MinTK minimal promoter); hPB-SV40 (human PBREM with SV40 minimal promoter); and MHM-SV40 (Mouse Human Mouse hybrid with SV40 minimal promoter)—SEQ ID NOs: 59 to 66, respectively.
(§2) These constructs were tested in the Huh7 stable cell line and primary hepatocytes as previously described. In addition, to testing the constructs with the traditional human CAR activator CITCO we also tested the natural compound flavone. […] CITCO has been predicted to be relatively unstable in vivo, and there is no data available for its safety of use in humans, and is therefore preferred for use only in tissue culture. Furthermore, the in vivo results presented above used phenobarbital as the inducer. In some contexts the use of phenobarbital may be undesirable, even if at 10× less than the recommended dose (which appears to be possible in view of the data above). Therefore, flavone may be a more desirable inducer that mitigates any safety or regulatory issues.
(§3) Expression and induction from these promoters was assessed using both CITCO and flavone in both the Huh7 CAR expressing stable cell line and primary hepatocytes as previously described.

For data set [1], the system named is Huh7 cell line stably expressing human CAR. In words: Induction of PBREM variants by CITCO and flavone in Huh7 cell line stably expressing human CAR. The data set is classed as cell-based.
Description: as §1, §2, §3

In the next data set the target is T1, human CAR (Homo sapiens, UniProt Q14994).
T1 sequence (Q14994 1-352): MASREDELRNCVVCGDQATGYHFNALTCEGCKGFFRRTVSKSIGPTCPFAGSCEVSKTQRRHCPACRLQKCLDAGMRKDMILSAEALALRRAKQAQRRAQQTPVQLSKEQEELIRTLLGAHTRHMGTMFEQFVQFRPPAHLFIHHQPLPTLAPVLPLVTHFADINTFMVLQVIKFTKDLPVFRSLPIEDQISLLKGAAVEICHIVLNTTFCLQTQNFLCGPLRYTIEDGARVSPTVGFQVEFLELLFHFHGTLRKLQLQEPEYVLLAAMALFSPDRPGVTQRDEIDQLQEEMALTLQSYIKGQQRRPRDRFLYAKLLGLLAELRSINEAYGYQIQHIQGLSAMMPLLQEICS
The conditions noted are these: cited from earlier work.

For another data set, the system named is Huh7 cells. As to the kind of experiment: EPO expression (ELISA of medium) from PB1-MinTK in Huh7 cells with CAR-containing plasmid, induction by CITCO. The data set is classed as cell-based, human. The conditions noted are these: 0.5 μM, 1 μM, 2 μM and 3 μM CITCO. The text has this: • Huh7 cells which are a human liver cell line • DPBS: without CaCl2, without MgCl2 (Gibco, 14190-094) • DMEM (Sigma, D6546) • FBS (Sigma, F9665) • Pen-Strep (Sigma, P4333) • Promega Fugene-HD (E2311) • TCPOBOP (Sigma, T2320) • CITCO (Cayman Chemicals Company, 16027) • pcDNA6 plasmid which contains the β-galactosidase gene used as internal control for transfection efficiency (Thermofisher, V22020) • mouse CAR expression plasmid from Jouan et al, 2016 (BioCat GmbH, EX-Z4288-M51-10-GC). This was used as Huh7 is CAR deficient. • β-galactosidase substrate solution (Thermofisher, 75707/75710) • Pierce BCA kit (23225) • LARII (Dual Luciferase Reporter 1000 assay system, Promega, E1980) • EPO ELISA kit (Abcam, ab119522) Method: Day 1 • Cells were seeded onto a 48 well plate at a density of 25,000 cells/300 μl Day 2 • On the day of transfection, DNA to be transfected (CAR plasmid/PB1-MinTK operably linked with luciferase or EPO/pcDNA6 plasmid for internal control) was diluted to a 100 ng/μl stock solution. Per 48 Well Transfection: • 45 ng of DNA (15 ng of each plasmid, pcDNA6, CAR and test plasmid) was mixed with 4.1 μl of Optimem medium. • 0.5 μl of Fusion HD was mixed with 4 μl of Optimem medium. • These 2 solutions were mixed and incubated at room temperature for 15 minutes. • The final solution was then added to the well drop wise. • 3 hrs after transfection, the inducer TCPOBOP was added to the appropriate wells at the indicated concentration. Day 3 • 24 hrs after induction the media was removed from the cells. • The cells were washed once in 300 μl of DPBS • Cells were lysed using 100 μl of passive lysis buffer and incubation with rocking for 15 minutes • The cell debris was pelleted by centrifugation of the plate at max speed in a benchtop centrifuge for 1 min • For luciferase, 10 μl sample was transferred into white 96-well plate and luminescence measured by injection of 50 μl of LARII substrate. • β-galactosidase activity was measured as per manufacturer's instructions (Mammalian β-Galactosidase Assay Kit, 75707/75710, Thermo Scientific) using 25 μl of lysate. 25 μl of lysate was transferred into a microplate well and mixed with 25 μl of β-galactosidase Assay Reagent, equilibrated to room temperature. The mixture was incubated at 37° C. for 30 min and absorbance measured at 405 nm. • Protein concentration was measured as per manufacturer's instructions (Pierce™ BCA Protein Assay Kit, 23225/23227, Thermo Scientific) using 25 μl of lysate. 25 μl of lysate was transferred into a microplate well and mixed with 200 μl of working solution. The mixture was incubated at 37° C. for 30 min, cooled to room temperature and then absorbance measured around 562 nm. The protein concentration was calculated with respect to protein standard curve prepared from assaying standards with known protein concentration.
Transfections with PB1-MinTk-EPO were performed as described above with the exception that EPO is secreted into the medium. Therefore, medium was collected, and EPO concentration measured as per manufacturer's instructions (ab119522 Erythropoietin (EPO) Human ELISA Kit, Abcam) using an ELISA assay. 50 μl of medium was transferred to a pre-washed microplate wells and mixed with 50 μl of 1× Biotin Conjugated Antibody. The mixture was incubated at room temperature for 1 hour. The wells were washed, 100 μl of Streptavadin-HRP was added and the plate was incubated at room temperature for 15 minutes. The wells were washed and then 100 μl of TMB Substrate Solution. The mixture was incubated at room temperature for 10 minutes. The enzyme reaction was stopped by addition of 100 μl of Stop Solution and absorbance was read at 450 nm. The EPO concentration was calculated with respect to EPO standard curve prepared from assaying standards with known EPO concentration.
The PB1-MinkTK promoter was then used to drive expression of the protein EPO, which is of therapeutic interest. […]
Background: An ELISA detects its analyte on a solid surface through an enzyme-linked reagent.

Where [2] appears, read: monomers compared with PB1 (FIG. 10), multimers with PB1-2 (FIG. 12).
Setting [3] is: monomers compared with PB1 (FIG. 9), multimers with PB1-2 (FIG. 11).

Turning to “hPB: human PBREM element (SEQ ID NO: 2), tested with Min-TK and SV40 minimal promoters (DNA ACTGTACTTTCCTGACCCTGAAGAGGTGGCAGCATGGACTTTCCTGAACCA; expressed or natural sequence; listed as Homo sapiens)”, the “performance (inducibility and background) compared with PB1” value is given as “almost identical manner to the mouse PBREM (PB1)” with primary hepatocytes (CITCO and flavone, FIG. 10); “almost identical manner to the mouse PBREM (PB1)” in data set [1] (CITCO and flavone, FIG. 9).
“MHM hybrid: Mouse Human Mouse hybrid PBREM element (SEQ ID NO: 74), tested with Min-Tk and SV40 minimal promoters (DNA TCTGTACTTTCCTGACCTTGAAGAGGTGGCACCATCAACTTGCCTGACACC; expressed or natural sequence)”: the induction result is on record as “good induction” with primary hepatocytes (CITCO and flavone); “good induction” in data set [1] (CITCO and flavone). Besides, the background result (in the data set with primary hepatocytes (setting [2]); in data set [1] (setting [3])) was “lower background” in each case. For the same molecule, the “overall activity / expression level” value (in the data set on primary hepatocytes (setting [2]); in data set [1] (setting [3])) was “lower overall activity” in each case.
As for `O=c1cc(-c2ccccc2)oc2ccccc12` [flavone, reference compound], the “activation of human CAR” value on human CAR is on record as “previously been reported to activate human CAR”. For the same molecule, in data set [1] (administered to cells), the “concentration demonstrated suitable to induce expression” value is 30 µM.
With `Clc1cnc(Oc2ccc(Oc3ncc(Cl)cc3Cl)cc2)c(Cl)c1` [TCPOBOP, 1,4-Bis[2-(3,5-dichloropyridyloxy)]benzene], the “activation of human CAR” value on human CAR is “does not activate human CAR”.
With “CMV-MP: CMV minimal promoter driving EPO in pGL4.10, SEQ ID NO: 54 [reference compound]”, the “change of EPO expression on addition of CITCO” value in the data set with Huh7 cells is “does not change the EPO expression”.

B1: Human NR1x3-MinTK: 3× human NR1 region with MinTK minimal promoter, SEQ ID NO: 59 (nucleic acid)
DNA: ACTGTACTTTCCTGACCCTGAAGAGACTGTACTTTCCTGACCCTGAAGAGACTGTACTTTCCTGACCCTGAAGAGGATCCGGCCCCGCCCAGCGTCTTGTCATTGGCGAATTCGAACACGCAGATGCAGTCGGGGCGGCGCGGTCCGAGGTCCACTTCGCATATTAAGGTGACGCGTGTGGCCTCGAACACCGAGCGACCCTGCAGCGACCCGCTTAACAGCGTCAACAGCGTGCCGCAGATCTCGAGGAGCTTGGCGAGATTTTCAGGAGCT
modifications: Human NR1x3-Min TK
Regarding B1, the induction entry in the data set with primary hepatocytes (CITCO and flavone) was “less so in the primary cells”; in data set [1] (CITCO and flavone) it was “only induced in the stable cell line”. Further, the background entry (in the data set with primary hepatocytes (setting [2]); in data set [1] (setting [3])) was “relatively high background” throughout.
